The test system of assay [1] is HEK-293T cells. In words: Fluorescence microscopy of HEK-293T cells after transfection (Hoechst 33342 nuclear staining). Type of assay: cell-based. The conditions noted are these: 1 μg plasmid per well, 4 h transfection then 12 h culture, Z-VAD-FMK 20 μM added 2 h before transfection. As for the experimental part:
(§1) The cultured HEK-293T cells (purchased from ATCC) were digested and counted with a hemocytometer, the resulting cells were diluted with a medium containing 10% fetal bovine serum (FBS) by volume, and added to a six-well plate, with 2×10^5 cells per well. The six-well plate was incubated in a 5% CO2 incubator at 37° C. until the cells grew to 50% to 70% confluence for transfection. […]
(§2) During the transfection, a mass-to-volume ratio (m:v) of the plasmid and the transfection reagent was 1:2, and 1 μg of the plasmid was added to each well of the six-well plate, and 2 μl of the transfection reagent was added correspondingly; the plasmid and transfection reagent were diluted with a serum-free medium in advance, shaken well, and allowed to stand at 25° C. for 5 min separately; the transfection reagent was pipetted to the serum-free medium containing the plasmid, flicked to mix well, and allowed to stand at 25° C. for 20 min to obtain a complex. […] Z-VAD-FMK (Selleck) was added to the six-well plate at a concentration of 20 μM 2 h before the transfection, nuclei were colored with a Hoechst 33342 dye, and condition of the cells after transfection was observed under a fluorescence microscope.

Assay [2] concerns HEK-293T cells. In words: Annexin V-FITC flow cytometry-based apoptosis assay of transfected cells. It counts as cell-based. Here is the method: as §1
as §2, with “microscope. […]” for “microscope.”

Residues, ends and D or L forms follow the SMILES beside them. No end group written: not given here. *: point of attachment. Cbz = O=C(OCc1ccccc1)*; CH2F = FC*

As to `COC(=O)C[C@H](NC(=O)[C@H](C)NC(=O)[C@@H](NC(=O)OCc1ccccc1)C(C)C)C(=O)CF` [Z-VAD-FMK] (Cbz-Val-Ala-Asp(OMe)-CH2F), in the assay with HEK-293T cells [1], the “condition of the cells after transfection observed under a fluorescence microscope” value is on record as “significantly inhibit apoptosis”. Further, the “survival rate of cells (FIG. 4)” value in the assay with HEK-293T cells [2] (HEK-293T cells after transfection, in words) is “significantly improved”.

As to DASTKKLSECLRRIGDELDS, the effect on apoptosis entry with HEK-293T cells [2] (Bax-BH3 polypeptide expressed by the recombinant vector transfected into HEK-293T cells) was “promoting apoptosis”.
